Measurements: PubChem BioAssay (NCI)
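These data come from cells grown in 96-well plates and exposed to compound for 48 hours at five concentrations. The concentration for 50% growth inhibition is given as GI50. TGI: concentration producing complete growth inhibition.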

Tests used:
Assay in all cases: inhibition of tumour cell growth, NCI panel, 48 h
[1] = system: 786-0 renal
[2] = system: A498 renal
[3] = system: A549 NSCLC
[4] = system: ACHN renal
[5] = system: BT-549 breast
[6] = system: CAKI-1 renal
[7] = system: CCRF-CEM leukemia
[8] = system: COLO 205 colon
[9] = system: DU-145 prostate
[10] = system: EKVX NSCLC
[11] = system: HCC-2998 colon
[12] = system: HCT-116 colon
[13] = system: HCT-15 colon
[14] = system: HL-60(TB) leukemia
[15] = system: HOP-62 NSCLC
[16] = system: HOP-92 NSCLC
[17] = system: HS 578T breast
[18] = system: HT29 colon
[19] = system: IGROV1 ovarian
[20] = system: K-562 leukemia
[21] = system: KM12 colon
[22] = system: LOX IMVI melanoma
[23] = system: M14 melanoma
[24] = system: MALME-3M melanoma
[25] = system: MCF7 breast
[26] = system: MDA-MB-231 breast
[27] = system: MDA-MB-435
[28] = system: MOLT-4 leukemia
[29] = system: NCI-H226 lung
[30] = system: NCI-H23 lung
[31] = system: NCI-H460 lung
[32] = system: NCI-H522 lung
[33] = system: NCI/ADR-RES ovarian
[34] = system: OVCAR-3 ovarian
[35] = system: OVCAR-4 ovarian
[36] = system: OVCAR-5 ovarian
[37] = system: OVCAR-8 ovarian
[38] = system: PC-3 prostate
[39] = system: RPMI-8226 leukemia
[40] = system: RXF 393 renal
[41] = system: SF-268 CNS
[42] = system: SF-295 CNS
[43] = system: SF-539 CNS
[44] = system: SK-MEL-2 melanoma
[45] = system: SK-MEL-28 melanoma
[46] = system: SK-MEL-5 melanoma
[47] = system: SK-OV-3 ovarian
[48] = system: SN12C renal
[49] = system: SNB-19 CNS
[50] = system: SNB-75 CNS
[51] = system: SW-620 colon
[52] = system: T-47D breast
[53] = system: TK-10 renal
[54] = system: U251 CNS
[55] = system: UACC-257 melanoma
[56] = system: UACC-62 melanoma
[57] = system: UO-31 renal

Work on `O=C1c2[nH]cc(CN3CCN(CCO)CC3)c2C(=O)c2c1c(O)c1ccccc1c2O` yielded a GI50 [1] of 2.65 µM, a TGI [1] of 11 µM and a GI50 [2] of 13.2 µM. It also gave a TGI [2] of 27.8 µM, a GI50 [3] of 7.15 µM and a TGI [3] of 24.4 µM. For the same compound, the GI50 [4] was 5.38 µM, the TGI [4] was 23.3 µM and the GI50 [5] was 13.8 µM. For the same compound, the TGI [5] was 28.6 µM, the GI50 [6] was 5.45 µM and the TGI [6] was 14.2 µM. The GI50 [7] was 1.63 µM, the GI50 [8] was 16.4 µM and the TGI [8] was 47.4 µM. For the same compound, the GI50 [9] was 4.53 µM, the TGI [9] was 18.2 µM and the GI50 [10] was 8.14 µM. The TGI [10] was 22.5 µM, the GI50 [11] was 6.51 µM and the TGI [11] was 21.1 µM. The GI50 [12] was 1.76 µM, the TGI [12] was 5.47 µM and the GI50 [13] was 2.87 µM. It also gave a TGI [13] of 18.6 µM, a GI50 [14] of 2.83 µM and a TGI [14] of 48.9 µM. The GI50 [15] was 1.92 µM, the TGI [15] was 15 µM and the GI50 [16] was 1.14 µM. The TGI [16] was 9.56 µM, the GI50 [17] was 8.14 µM and the TGI [17] was 24.4 µM. The GI50 [18] was 12.3 µM, the TGI [18] was 31.6 µM and the GI50 [19] was 1.61 µM. It also gave a TGI [19] of 15.1 µM, a GI50 [20] of 2.17 µM and a TGI [20] greater than 100 µM. It also gave a GI50 [21] of 1.62 µM, a TGI [21] of 3.91 µM and a GI50 [22] of 1.95 µM. The TGI [22] was 6.34 µM, the GI50 [23] was 1.69 µM and the TGI [23] was 3.86 µM. The GI50 [24] was 7.69 µM, the TGI [24] was 24.9 µM and the GI50 [25] was 5.63 µM. It also gave a TGI [25] of 21.9 µM, a GI50 [26] of 4.89 µM and a TGI [26] of 16.3 µM. It also gave a GI50 [27] of 1.84 µM, a TGI [27] of 4.14 µM and a GI50 [28] of 1.38 µM. The TGI [28] was 9.48 µM, the GI50 [29] was 10.5 µM and the TGI [29] was 28.4 µM. The GI50 [30] was 14.9 µM, the TGI [30] was 39.4 µM and the GI50 [31] was 2.69 µM. For the same compound, the TGI [31] was 12.3 µM, the GI50 [32] was 2.08 µM and the TGI [32] was 9.05 µM. For the same compound, the GI50 [33] was 9.64 µM, the TGI [33] was 28.3 µM and the GI50 [34] was 4 µM. For the same compound, the TGI [34] was 16.3 µM, the GI50 [35] was 13.3 µM and the TGI [35] was 29.4 µM. It also gave a GI50 [36] of 16.5 µM, a TGI [36] of 33 µM and a GI50 [37] of 5.52 µM. The TGI [37] was 17.7 µM, the GI50 [38] was 2.7 µM and the TGI [38] was 8.78 µM. The GI50 [39] was 1.52 µM, the TGI [39] was 4.16 µM and the GI50 [40] was 6.03 µM. It also gave a TGI [40] of 22.9 µM, a GI50 [41] of 5.9 µM and a TGI [41] of 24.2 µM. It also gave a GI50 [42] of 2.56 µM, a TGI [42] of 10.9 µM and a GI50 [43] of 1.52 µM. It also gave a TGI [43] of 3.11 µM, a GI50 [44] of 2.77 µM and a TGI [44] of 8.06 µM. The GI50 [45] was 13.6 µM, the TGI [45] was 28.7 µM and the GI50 [46] was 1.12 µM. It also gave a TGI [46] of 3.27 µM, a GI50 [47] of 18.7 µM and a TGI [47] of 37.5 µM. For the same compound, the GI50 [48] was 2.18 µM, the TGI [48] was 9.92 µM and the GI50 [49] was 14.8 µM. For the same compound, the TGI [49] was 32.5 µM, the GI50 [50] was 14.2 µM and the TGI [50] was 32.8 µM. For the same compound, the GI50 [51] was 1.68 µM, the TGI [51] was 3.48 µM and the GI50 [52] was 19.2 µM. The TGI [52] was 38.6 µM, the GI50 [53] was 0.36 µM and the TGI [53] was 6.78 µM. The GI50 [54] was 5.31 µM, the TGI [54] was 25.9 µM and the GI50 [55] was 8.33 µM. The TGI [55] was 25.2 µM, the GI50 [56] was 4.53 µM and the TGI [56] was 9.01 µM. For the same compound, the GI50 [57] was 3.82 µM and the TGI [57] was 18.8 µM.
